Assays:
CRMP2 = assay: Immunoblot of CRMP2 phosphorylation in CAD cells; format: cell-based, mouse; settings: overnight incubation of CBD3063 (20 µM)
Procedure: Mouse neuron derived Cathecholamine A differentiated CAD cells (ECACC Cat #08100805, RRID: CVCL_0199) were grown in standard cell culture conditions, 37° C. in 5% (vol/vol) CO2. The cells were maintained in DMEM/F12 media supplemented with 10% (vol/vol) FBS (HyClone) and 1% penicillin/streptomycin sulfate from 10,000 μg/mL stock.
Indicated samples were loaded on 4-20% Novex gels (cat. no. XP04205BOX; Thermo Fisher Scientific, Waltham, MA). Proteins were transferred to preactivated PVDF membranes for 1 hour at 100 V using TGS [25 mM Tris, pH 8.5, 192 mM glycine, 0.1% (mass/vol) SDS], 20% (vol/vol) methanol as transfer buffer (0.45 μm; Cat #IPVH00010; Millipore Sigma, St. Louis, MO). After transfer, the membranes were blocked at room temperature for 1 hour with TBST (50 mM Tris·HCl, pH 7.4, 150 mM NaCl, 0.1% Tween 20) with 5% (mass/vol) nonfat dry milk, and then incubated overnight at 4° C. separately with indicated primary antibodies, β111-Tubulin (Cat #G7121; Promega, Madison, WI), CRMP2 (Cat #C2993; Sigma-Aldrich, St. Louis, MO), Cav2.2 (Cat #TA308673; Origene, Rockville, MD), CRMP2 pSer522 (Cat #CP2191; ECM Biosciences, Versailles, KY), and CRMP2 pThr514 (Cat #PA5-110113; Invitrogen, Waltham, MA), in TBST, 5% (mass/vol) BSA. For examining the effect of CBD3063 on CRMP2 phosphorylation state, CAD cells were treated overnight with vehicle (0.1% DMSO) or CBD3063 (20 μM) and the next day cells were lysed using RIPA buffer. Approximately 40 μg of total proteins were loaded on an SDS-PAGE and then transferred to polyvinylidene difluoride membranes and blocked at room temperature for 1 hour. Primary antibodies used for probing were CRMP2 (Cat #C2993, Sigma-Aldrich, St Louis, MO), CRMP2 pThr514 (Cat #PB-043, Kinasource, Dundee, Scotland, United Kingdom), CRMP2 pSer522 (Cat #CP2191, ECM Biosciences, Versailles, KY), and CRMP2 pT555 (Cat #CP2251, ECM Biosciences, Versailles, KY).

[1] = tested on: Cav3 (T-type) calcium channels; assay: Whole-cell patch-clamp, isolated T-type Ca2+ currents in DRG neurons; format: cell-based, rat
Procedure: Recordings were obtained from acutely dissociated DRG neurons as described earlier (Bellampalli et al., 2019). Patch-clamp recordings were performed at room temperature (22-24° C.). Currents were recorded using an EPC 10 Amplifier-HEKA (HEKA Elektronik, Ludwigshafen, Germany) linked to a computer with Patchmaster software. DRG neurons were incubated overnight (˜16-24 hours) with 20 μM of CBD3063.
For total calcium current (ICa^2+) recordings, the external solution consisted of the following (in mM): 110 N-methyl-D-glucamine, 10 BaCl2, 30 TEA-Cl, 10 HEPES, 10 glucose, and 0.001 TTX (pH 7.29 adjusted with TEA-OH, and mOsm/L=310). Patch pipettes were filled with an internal solution containing (in mM): 150 CsCl2, 10 HEPES, 5 Mg-ATP, and 5 BAPTA, (pH 7.2 adjusted with CsOH, and mOsm/L-305). Peak Ca^2+ current was acquired by applying 200-millisecond voltage steps from −70 to +60 mV in 10-mV increments from a holding potential of −90 mV to obtain the current-voltage (I-V) relation. To measure the different subtypes of Ca^2+ channels, DRGs were treated with a Cav inhibitor cocktail omitting the inhibitor specific to the subtype being tested (e.g., to measure Cav2.2 currents, ω-conotoxin GVIA is omitted): Nifedipine (10 μM, L-type), ω-Conotoxin-GVIA (500 nM, […]) (Feng, et al., 2001), SNX482 (200 nM, R-type) (Newcomb et al., 1998), ω-agatoxin (200 nM, P/Q-type) (Mintz et al., 1992), TTA-P2 (1 μM, T-type) (Choe et al., 2011).
Normalization of currents to each cell's capacitance (pF) was performed to allow for collection of current density data. For I-V curves, functions were fitted to data using a non-linear least squares analysis. I-V curves were fitted using double Boltzmann functions:
where x is the pre-pulse potential, V1/2 is the mid-point potential, and k is the corresponding slope factor for single Boltzmann functions. Double Boltzmann fits were used to describe the shape of the curve, not to imply the existence of separate channel populations. Numbers 1 and 2 simply indicate first and second mid-points; a along with g are fitting parameters.
Activation curves were obtained from the I-V curves by dividing the peak current at each depolarizing step by the driving force according to the equation: G=I/(Vmem-Erev), where I is the peak current, Vmem is the membrane potential and Erev is the reversal potential. The conductance (G) was normalized against the maximum conductance (Gmax). For total and the different subtypes of Ca^2+ currents, steady-state inactivation (SSI) curves were obtained by applying an H-infinity protocol that consisted of 1.5-seconds conditioning pre-pulses from −100 to +30 mV in 10-mV increments followed by a 20-millisecond test pulse to +10 mV. For Na^+ currents, SSI curves were obtained by applying an H-infinity protocol that consisted of 1-second conditioning pre-pulses from −120 to +10 mV in 10-mV increments followed by a 200-millisecond test pulse to +10 mV. Inactivation curves were obtained by dividing the peak current recorded at the test pulse by the maximum current (Imax). Activation and SSI curves were fitted with the Boltzmann equation.

[2] = 20 μM overnight, mean ± SEM (n cells)

CC(=O)N[C@@H]1CCCN(C(=O)NCCCNc2ccccn2)C1 [CBD3063, (3R)-3-acetamido-N-[3-(pyridin-2-ylamino)propyl]piperidine-1-carboxamide]
expression of phosphorylated CRMP2 at site 514 (GSK-3β) (CRMP2): no differences | expression of phosphorylated CRMP2 at site 522 (Cdk5) (CRMP2): no differences | expression of phosphorylated CRMP2 at site 555 (RhoK) (CRMP2): no differences | effect on Ca2+ influx through Cav3 (T-type) channels (current density-voltage curve, peak current density) ([1]; 20 μM overnight vs 0.1% DMSO): does not alter | T-type Ca2+ currents, activation V1/2 [1, 2]: −10.982 ± 1.992 (10) mV | T-type Ca2+ currents, activation k (slope factor) [1, 2]: 9.924 ± 1.628 (10) | T-type Ca2+ currents, inactivation V1/2 [1, 2]: −35.122 ± 2.752 (10) mV | T-type Ca2+ currents, inactivation k (slope factor) [1, 2]: −12.929 ± 2.490 (10)
